Values joined by “and” are separate entries in the source; they are usually repeats but may differ in a detail not shown here. Equal entries are not always repeated. Inconclusive results and toxic doses are left out. How the source made its calls: active means survival T/C of 150% or more; inactive means T/C below 125% in these data.
System: P388 leukemia ip, CD2F1 mice, survival T/C
Experiment: NCI In Vivo Anticancer Drug Screen. Data for tumor model P388 Leukemia (intraperitoneal) in CD2F1 (CDF1) mice
Settings: endpoint: median survival time, higher = longer survival
Summary of the method: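 Mice carrying the transplanted tumor received test compound or vehicle. Survival was recorded in each group, and the value is the treated-group measurement divided by that of the vehicle-treated control group.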

[1] = dose: 7.5 mg/kg/injection, schedule: Q01DX005 (ip), vehicle: saline with Tween-80
[2] = dose: 50.0 mg/kg/injection, schedule: Q01DX009 (ip), vehicle: saline with Tween-80
[3] = dose: 100.0 mg/kg/injection, schedule: Q01DX009 (ip), vehicle: saline with Tween-80
[4] = dose: 200.0 mg/kg/injection, schedule: Q01DX009 (ip), vehicle: saline with Tween-80
[5] = dose: 60.0 mg/kg/injection, schedule: Q01DX005 (ip), vehicle: saline with Tween-80
[6] = dose: 120.0 mg/kg/injection, schedule: Q01DX005 (ip), vehicle: saline with Tween-80
[7] = dose: 240.0 mg/kg/injection, schedule: Q01DX005 (ip), vehicle: saline with Tween-80
[8] = dose: 50.0 mg/kg/injection, schedule: Q01DX005 (ip), vehicle: Klucel (hydroxypropylcellulose) (HPC)
[9] = dose: 100.0 mg/kg/injection, schedule: Q01DX005 (ip), vehicle: Klucel (hydroxypropylcellulose) (HPC)
[10] = dose: 15.0 mg/kg/injection, schedule: Q01DX005 (ip), vehicle: saline with Tween-80
[11] = dose: 30.0 mg/kg/injection, schedule: Q01DX005 (ip), vehicle: saline with Tween-80
[12] = dose: 50.0 mg/kg/injection, schedule: Q01DX005 (ip), vehicle: saline with Tween-80
[13] = dose: 100.0 mg/kg/injection, schedule: Q01DX005 (ip), vehicle: saline with Tween-80
[14] = dose: 200.0 mg/kg/injection, schedule: Q01DX005 (ip), vehicle: saline with Tween-80

Measured: T/C

CN1NC(c2ccccc2)=C(C#N)C(=O)CC1c1ccc(Cl)cc1 (stereo not given)
inactive: dose: 3.75 mg/kg/injection, schedule: Q01DX005 (ip), vehicle: saline with Tween-80 117 % of control | [1] 100 % of control and 101 % of control and 113 % of control

O=C(Nc1cc(Cl)ccc1Cl)O/N=C/c1ccncc1
inactive: [2] 93 % of control | [3] 94 % of control | [4] 94 % of control

CN1CCC2c3c([nH]c4ccccc34)C(C)(C)OC2C1 (stereo not given)
inactive: [5] 111 % of control | [6] 113 % of control | [7] 118 % of control

O=N[O-].O=N[O-].[Co].[NH-]CC[N-]CCO.[NH-]CC[N-]CCO
inactive: dose: 6.25 mg/kg/injection, schedule: Q01DX009 (ip), vehicle: saline 95 % of control | dose: 12.5 mg/kg/injection, schedule: Q01DX009 (ip), vehicle: saline 99 % of control | dose: 25.0 mg/kg/injection, schedule: Q01DX009 (ip), vehicle: saline 94 % of control | dose: 50.0 mg/kg/injection, schedule: Q01DX009 (ip), vehicle: saline 95 % of control

CCOc1ccc(C(C)c2cc3c(cc2OC)OCO3)c(C)c1 (stereo not given)
inactive: [8] 103 % of control | [9] 106 % of control | dose: 200.0 mg/kg/injection, schedule: Q01DX005 (ip), vehicle: Klucel (hydroxypropylcellulose) (HPC) 106 % of control

O=C1CS/C(=C/Cc2nc3ccccc3s2)N1
inactive: [5] 108 % of control | [6] 97 % of control | [7] 102 % of control

CC1=C(C#N)C(=O)OC1(C)C1CCCC(=O)C1 (stereo not given)
inactive: [1] 99 % of control | [10] 100 % of control | [11] 98 % of control | [5] 100 % of control and 107 % of control

CC(O)C(=O)N(C)CCCO (stereo not given)
inactive: dose: 50.0 mg/kg/injection, schedule: Q01DX005 (ip), vehicle: saline 92 % of control | dose: 100.0 mg/kg/injection, schedule: Q01DX005 (ip), vehicle: saline 101 % of control | dose: 200.0 mg/kg/injection, schedule: Q01DX005 (ip), vehicle: saline 100 % of control

c1ccc(CNc2nnc3nc(-c4ccccc4)c(-c4ccccc4)nn23)cc1
inactive: [12] 117 % of control | [13] 114 % of control | [14] 105 % of control

CC1(C)OC(=O)C(CCc2ccncc2)(CCc2ccncc2)C(=O)O1
inactive: [2] 115 % of control | [3] 104 % of control | [4] 106 % of control

CC1=C(/C=C/C(C)=C/C=C/C(C)=C/C(=O)O)C(C)(C)CCC1
inactive: dose: 32.0 mg/kg/injection, schedule: Q01DX005 (ip), vehicle: saline with Tween-80 119 % of control | dose: 64.0 mg/kg/injection, schedule: Q01DX005 (ip), vehicle: saline with Tween-80 111 % of control | dose: 100.0 mg/kg/injection, schedule: Q04DX003 (ip), vehicle: saline with Tween-80 105 % of control | dose: 128.0 mg/kg/injection, schedule: Q01DX005 (ip), vehicle: saline with Tween-80 103 % of control | dose: 200.0 mg/kg/injection, schedule: Q04DX003 (ip), vehicle: saline with Tween-80 115 % of control

CN(C)c1ccc(/C=N/NC(=O)COc2ccccc2)cc1
inactive: [10] 98 % of control | [11] 88 % of control | [5] 88 % of control

CC(=O)OC1C=C2C(=O)OCC2(O)C2(C)CCCC(C)(C)C12 (stereo not given)
inactive: dose: 3.12 mg/kg/injection, schedule: Q01DX009 (ip), vehicle: other 102 % of control | dose: 6.25 mg/kg/injection, schedule: Q01DX009 (ip), vehicle: other 100 % of control | dose: 12.5 mg/kg/injection, schedule: Q01DX009 (ip), vehicle: other 102 % of control

COc1ccc(NC(=O)CCC(=O)CC(=O)c2ccncc2)cc1
inactive: [5] 101 % of control | [6] 103 % of control | [7] 93 % of control

C=C1C(=O)OC2/C=C(\C)CC/C=C(/C=O)C(O)C(OC(=O)C(C)C)C12 (stereo not given)
inactive: dose: 5.0 mg/kg/injection, schedule: Q01DX009 (ip), vehicle: other 112 % of control | dose: 20.0 mg/kg/injection, schedule: Q01DX009 (ip), vehicle: other 94 % of control

S=C(N/N=C/c1ccccn1)SCc1ccccc1
inactive: dose: 50.0 mg/kg/injection, schedule: Q01DX009 (ip), vehicle: Klucel (hydroxypropylcellulose) (HPC) 101 % of control | dose: 100.0 mg/kg/injection, schedule: Q01DX009 (ip), vehicle: Klucel (hydroxypropylcellulose) (HPC) 104 % of control | dose: 200.0 mg/kg/injection, schedule: Q01DX009 (ip), vehicle: Klucel (hydroxypropylcellulose) (HPC) 100 % of control

O=[N+]([O-])c1cccc(C(O)(C(F)(F)F)C(F)(F)F)c1
inactive: dose: 25.0 mg/kg/injection, schedule: Q01DX009 (ip), vehicle: saline with Tween-80 95 % of control | [2] 97 % of control | [3] 106 % of control | dose: 100.0 mg/kg/injection, schedule: Q04DX002 (ip), vehicle: suspension in saline 112 % of control | [4] 98 % of control

CCCCN=Cc1ccccc1O.CCCCN=Cc1ccccc1O.[Cu]
inactive: [8] 99 % of control

CNC(=S)NNc1ccc(Cl)c(Cl)c1
inactive: dose: 25.0 mg/kg/injection, schedule: Q01DX009 (ip), vehicle: other 112 % of control | dose: 50.0 mg/kg/injection, schedule: Q01DX009 (ip), vehicle: other 108 % of control

COc1ccc(N=Nc2ccc(N(CCCl)CCCl)cc2)cc1
inactive: dose: 25.0 mg/kg/injection, schedule: Q01DX001 (ip), vehicle: Klucel (hydroxypropylcellulose) (HPC) 106 % of control | dose: 50.0 mg/kg/injection, schedule: Q01DX001 (ip), vehicle: Klucel (hydroxypropylcellulose) (HPC) 108 % of control | dose: 100.0 mg/kg/injection, schedule: Q01DX001 (ip), vehicle: Klucel (hydroxypropylcellulose) (HPC) 110 % of control

ClCC1CSC(c2ccc3c(c2)OCO3)O1 (stereo not given)
inactive: [2] 101 % of control and 96 % of control | [3] 121 % of control and 91 % of control | [4] 98 % of control

CC[C@@H]1C[C@H]2CC3c4[nH]c5ccc(O)cc5c4CCN(C2)C31
inactive: dose: 100.0 mg/kg/injection, schedule: Q01DX001 (ip), vehicle: saline with Tween-80 99 % of control

COc1cc(CN)ccc1O
inactive: [2] 103 % of control | [3] 110 % of control | dose: 100.0 mg/kg/injection, schedule: Q01DX009 (ip), vehicle: saline 104 % of control | [4] 103 % of control | dose: 200.0 mg/kg/injection, schedule: Q01DX009 (ip), vehicle: saline 101 % of control | dose: 400.0 mg/kg/injection, schedule: Q01DX009 (ip), vehicle: saline with Tween-80 104 % of control | dose: 400.0 mg/kg/injection, schedule: Q01DX009 (ip), vehicle: saline 104 % of control | dose: 600.0 mg/kg/injection, schedule: Q01DX009 (ip), vehicle: saline 107 % of control

O=C(O)c1cc(O)c(O)c(OC(=O)c2cc(O)c(O)c(O)c2CNc2ccc3cc(S(=O)(=O)O)cc(S(=O)(=O)O)c3c2)c1
inactive: [12] 110 % of control | [13] 115 % of control | [14] 112 % of control

CC(C)C(C#N)(C(=O)O)C(C)C
inactive: [2] 95 % of control | [3] 92 % of control

CC(=O)Nc1cc(Cl)cc2c1-c1ccc(Cl)cc1C2=O
inactive: [8] 88 % of control | [9] 94 % of control
